According to US7074925B1, “N-substituted derivatives of 5-oxyiminobarbituric acid” (priority 1998, dated 2006):
Converted amounts (≈) assume the structure as drawn.

Key:
[1] = Psychodepressive activity, behavioral score; format: in vivo, mice; conditions: per oral 300 mg/kg, one hour after dosing; total 60, less than 40 significant
Protocol: Each parameter scores 2 points for an each mouse that had unchanged behavior. The total point sum was 60 (2×10×3 mice). Reducing score to less than 40 one hour after dosing with a substance per oral (300 mg/kg) denoted significant behavioral depression. Haloperidol was utilized as a reference agent.

[2] = system: Human's platelet aggregation; assay: Antiaggregational properties, ADP-induced platelet aggregation; format: cell-based; conditions: 100 μg/ml, ADP […], platelet-enriched human plasma
Excerpt: Human's platelet aggregation was investigated in plasma of healthy 50±3 years donors that was enriched by thrombocytes, by means of aggregometer FRM-1. […] Magnitude of a maximum non-reversible platelet aggregation in the control samples (solvent) was adopted as 100%, and that in tested samples was counted as the percentage compared to the control.

C.trachomatis D323 = assay: Action on Chlamydia trachomatis in cell culture; format: cell-based; conditions: 100 mg/l
Protocol: The antimicrobial activity of the claimed compounds was studied relative to C.trachomatis […], which is a standard strain from the collection of the chair of microbiology of St. Petersburg State Pavlov Medical University. […] Cell cultures McCoy and L929 obtained from the Institute of Cytology of RAS were used in this work. Cells were grown in flasks made of neutral glass in the medium RPMI-1640 with the addition of 10% of fetal calf serum. The test was performed in glass (non-toxic) flat-bottom flasks with cover glasses. The cells were introduced into the medium in the final concentration of […]. […] Simultaneously, tested compounds in a final concentration of 100 mg/l were added to the cells. The sample was centrifuged at 2400 G during 60 minutes at room temperature and incubated at 37° C. for 2 hours. […] The samples were doubled using the medium without cycloheximide so as to exclude its effect on the investigated compounds. The samples were incubated in a CO2-incubator for 48 hours. […] The effect of the action of substance was determined by analysis of the monolayer state and number of cells with CPI when compared with the control (cell culture infected with C.trachomatis […]); in doing so, the number of unchanged cells, that were counted in 100 visual fields obtained using the special net of the microscope eyepiece, was taken into consideration. […] Control of cell culture: morphology of cells and state of monolayer correspond to the given type of the cells; control of chlamydia growth in the cell culture: presence of CPI in the monolayer; control of action of standard antimicrobial agent: reduction of number of CPI in the monolayer as compared to the previous control; control of toxicity of the claimed compounds: toxicity is absent; control of action of solvents: toxic action on cells is absent.

[3] = Hypoglycemic activity after glucose load; format: in vivo, mice; conditions: 100 mg/kg perorally, glucose 1000 mg/kg s.c.; for Glucose in blood: after one hour, glucose control 8.26 ± 0.50
Protocol: Test substance (100 mg/kg) was perorally administrated to fasted mice, and, immediately after that, solution of glucose (1000 mg/kg) was administrated subcutaneously. Glucose content in blood was determined in a hour by the orthotoluidine method. Reducing of glucose level by more than 20% relative to control animals indicated hypoglycemic properties. Glibenclamide (I mg/kg) was utilized as a reference agent.

[4] = Antioxidant action, riboflavine chemiluminescence; format: biochemical; conditions: solvent water, phosphate buffer pH 9.1
Excerpt: To assess a general antioxidant activity the method of riboflavine chemiluminescence was used. The test substance was introduced into a system consisted of phosphate buffer (pH 9.1), solution of riboflavine, and solution of bivalent iron sulfate. Chemiluminescence was initiated by 0.1% solution of hydrogen peroxide and registered by means of luminometer. […] Ascorbic acid was used as a reference agent.

[5] = Antiulcerous action, water immersion stress with immobilization; format: in vivo, rats; conditions: 20 mg/kg perorally; for % of animals with ulcers: rats, 4 hours stress, control 100; for % of reducing number of ulcers / % of reducing ulceration index: versus control; for Number of lesions: control 8.3 ± 2.5; for ulceration index: control 10.5 ± 5.7
Protocol: Antiulcerous activity of substances was tested on a model of experimental water immersion stress with immobilization. […] After that, gastric mucous membrane was investigated, number and sizes of ulcers were counted, ulceration index was determined (an average sum of ulcer lengths per one animal in a group).

[6] = system: Herpes virus of the type I (HSV-I/Leningrad/248/88); assay: Effect on Herpes virus, cytopathogenic action on Vero cells; format: cell-based, Herpes Simplex virus; conditions: compound 100 μg/ml; for Quantity of the unchanged cells (number of cells in 100 visual fields): Vero cells, 36 hours, cell control 10000; for percentage of protection of cells from virus: compared to the control of cell culture
Protocol: An antiviral activity was determined with respect to Herpes virus of the type I (HSV-I/Leningrad/248/88) by means of commonly accepted method. Viruses were grown on a continuous culture of Vero cells that have been received from the Bank of Cell Cultures of the Institute of Cytology of the Russian Academy of Science.
A virus in a final concentration of […] and the claimed compounds dissolved in DMSO in final concentrations of 100, 10 and 1 mg/l were added to cells that were grown on the RPMI-1640 medium with 10% fetal calf serum and placed into wells of the 96-well plate. 5 separate wells were used for each of tested concentrations of an agent. The plate was incubated during 60 minutes at 38° C. in a CO2-incubator. After the incubation, the virus was removed and then a fresh medium containing claimed compounds in used concentrations was again introduced.
Results were evaluated basing on presence of cytopathogenic action on the cells after 36 hours of incubation at 38° C. in the CO2-incubator.
The next controls were used in the experiment: • 1. Control of cell culture (capability to grow properly) • 2. Control of the virus (evaluation of capability for reproduction) • 3. Control of an antiviral activity of an antiviral drug Acyclovir • 4. Control of compounds (toxicity of compounds) • 5. Control of a solvent (DMSO) for toxicity.
To estimate a cytopathic action of the virus, a quantity of the unchanged cells was calculated in 100 visual fields formed by a special net of an eyepiece of the inverted microscope.

[7] = Hepatoprotective activity, CCl4 liver damage (AlAT); format: in vivo, rats
Protocol: CCl4 dissolved in 50% olive oil (1 ml/kg) was subcutaneously administrated to rats. Test substances were administrated perorally in a dose of 20 mg/kg 30 minutes before and 7 hours after the CCL4 administration. The activity of alanine-aminotranspherase (AlAT), which is a marker enzyme of liver parenchyma damage, was assessed twenty-four hours later. Reducing of enzyme amount by more than 30% relative to the control group was considered as evidence of hepatoprotective properties of the substance.
Silymarin in a dose of 100 mg/kg was used as a reference agent.

[8] = system: cholesterol synthesis by human's fibroblasts; assay: Inhibition of cholesterol synthesis in human's fibroblasts; format: cell-based; conditions: 400 ng/ml, [2-14C] acetate incorporation, 4 hours
Protocol: Influence of the substance (400 ng/ml) on cholesterol synthesis by human's fibroblasts was investigated. […] The spots corresponding to cholesterol were removed from a plate to a vial and then were coated with scintillation liquid; after that radioactivity was measured expressed as pulse/min/mg of cell protein. Lovastatin taken in the same concentration as the tested substance was utilized as a reference agent.

[9] = system: primary culture of human lymphocytes (IFN-α production); assay: Interferon-inducing activity in primary culture of human lymphocytes; format: cell-based
Protocol: Interferon synthesis induction caused by the claimed compounds was conducted on a primary culture of human lymphocytes (it is these cells in a human organism that are the main producers of interferons). To obtain lymphocyte culture, fresh blood (within 12 hours after sampling) from healthy donors (not of group II) was used. To separate lymphocytes, heparinized blood obtained from healthy donor was centrifuged in a density gradient of ficoll-verografin of […] in order to extract a fraction of immunocompetent cells. This fraction was selected and diluted with the nutrient medium RPMI-1640, containing 5% of fetal calf serum, 0.3 mg/ml of L-glutamin, 100 un/ml of penicillin, and […] of streptomycin. The concentration of lymphocytes was considered after dying them with methylene blue and calculation of cell number in Goryaev chamber. Initial solutions of the claimed compounds were diluted with the nutrient medium RPMI-1640 so that the final concentrations of the compounds, which were obtained after introduction of lymphocyte suspension, constituted the raw: 100 μg/ml, 10 μg/ml, 1 μg/ml. The final concentration of lymphocytes in the induction mixture was 3×10^6 cell/ml.
In parallels to the test samples the following controls were done: • 1). Control of spontaneous production of interferons (IFN) by lymphocytes. • 2). […] Control of spontaneous production of interferons in presence of DMSO taken in an amount corresponding to the test samples.
Control and test samples were incubated for 24 hours at the temperature of 37° C. After incubation, the samples were centrifuged at 2,000 G to deposit cell elements, and IFN-containing supernatant was separate out of samples; then the supernatant was analyzed for the quantitative content of IFN. Cell deposition was resuspended in the previous volume of nutrient medium, coloured with vital dye trypan blue, and cell number was counted in the Goryaev chamber (as described above) to determine cytotoxic action of the compounds. The quantitative determination of content of IFN in control and test samples was conducted using the immunoenzyme test system Pro Con IF2 Plus, that is intended for determination of IFN-α, which is produced by TOO “Protein contour”. The solid-phase immunoenzyme method, utilizing horse radish peroxidase as an indicator enzyme, was used to determine the quantity of interferon in the samples. Activity of the bonded peroxidase was measured using an automatic photometer for microplates with a microprocessor at the wavelength of 450 nm.
Based on the obtained results, a calibrating curve was formed, which allows to obtain data expressed in international units (IU) of activity, using the microprocessor of the automatic photometer. The results of the analysis are expressed in IU of activity of IFN per ml in the given induction system, which contains 3×10^4 lymphocyte/ml. Each test and control point was investigated in four parallels.
Controls of immunoenzyme reaction: • 1. Control of DMSO with a nutrient medium. • 2. Control of system components (according to an instruction).
The obtained data were undergone a statistical analysis using t-criterion, and calculation of the confident interval of probability at p=0.05 was carried out. Coincidence of results in the parallel tests was analyzed.

[10] = Determination of maximal tolerable dose; format: in vivo; conditions: oral administration, mice, observed 72 hours; 300 was the maximally utilized one
Protocol: Tested substance was introduced perorally (in dose of 300 mg/kg) through a gastric tube or intraperitoneally (in dose of 100 mg/kg) to no-breed white mice with mass 18-20 g (each tested group consisted of 3 males and 3 females). Then the mouse state was observed during 72 hours. Absence of symptoms characteristic of toxic effects, or absence of animal death during the given time allows to make a conclusion that the toxicity of the test substance is low. If acute toxicity effects are observed, the dose is reduced to find maximal tolerable dose.

[11] = Psychostimulating activity, symptom score; format: in vivo, mice; conditions: tested substances perorally 300 mg/kg, one hour after; maximum 30 points, more than 12 significant

SMILES	% of inhibition of platelet aggregation [2]	% change of glucose relative to glucose control [3]	Glucose in blood [3]	IC50, suppressing chemiluminescence by 50% [4]	% of animals with ulcers [5]	% of reducing number of ulcers [5]	% of reducing ulceration index [5]	Number of lesions [5]	ulceration index [5]	Quantity of the unchanged cells (number of cells in 100 visual fields) [6]	percentage of protection of cells from virus [6]	further results
O=C1NC(=O)N(c2ccc(F)cc2)C(=O)C1=NO [XXVII]	24.3 ± 4.8%	−12%	7.26 ± 0.41 mmol/L	13.00 µg/mL (≈ 51.8 µM)	67%	−79%	−88%	1.7 ± 1.3	1.3 ± 1.0	6500	(65%)	Point number (behavioral depression) [1]: 31; percentage of cell protection from infection (C.trachomatis D323): (65%); Number of unchanged cells (C.trachomatis D323; 48 hours, counted in 100 visual fields, cell control 8.000, infected cells 6.000): 7.300; AlAT ([7]; 20 mg/kg perorally 30 minutes before and 7 hours after CCl4, 24 hours, CCl4 control 0.83 ± 0.21, intact 0.27 ± 0.04): 0.42 ± 0.08 mmol/L/h; % of reducing AlAT ([7]; 20 mg/kg perorally, relative to CCl4 control): −49%
O=C1NC(=O)N(c2cccc(C(F)(F)F)c2)C(=O)C1=NO [XXXII]	64.3 ± 6.2%	−14%	7.10 ± 0.28 mmol/L	6.40 µg/mL (≈ 21.2 µM)	100%	−52%	−64%	4.0 ± 1.3	3.8 ± 1.5	5000	(50%)	% of inhibition of cholesterol synthesis [8]: 23.5%; Content of IFN in induction mixture after 24-hour incubation ([9]; substance 1 mg/l): 12.5 ± 1.0 IU/3 × 10^4 lymph./ml; Content of IFN in induction mixture after 24-hour incubation ([9]; substance 10 mg/l): 77.5 ± 1.5 IU/3 × 10^4 lymph./ml; Content of IFN in induction mixture after 24-hour incubation ([9]; substance 100 mg/l): 126.5 ± 1.6 IU/3 × 10^4 lymph./ml; Maximal tolerable dose, concentration of test substances [10]: 300 mg/kg
CN1CCc2cccc3c2[C@H]1Cc1ccc(O)c(O)c1-3 [Apomorphine, reference compound]	–	–	–	–	–	–	–	–	–	–	–	Number of points (psychostimulation) [11]: 19
CC[C@H](C)C(=O)O[C@H]1C[C@@H](C)C=C2C=C[C@H](C)[C@H](CC[C@@H]3C[C@@H](O)CC(=O)O3)[C@H]21 [Lovastatin, reference compound]	–	–	–	–	–	–	–	–	–	–	–	inhibition at 0.4 µg/mL ([8]; Homo sapiens, Fibroblast): 76.4%
